{
  "source": "ChEMBL document CHEMBL3045016",
  "about": "“Insecticidal compounds from the essential oil of Chinese medicinal herb Atractylodes chinensis” (2011)",
  "data": [
    {"tested_on": "Drosophila melanogaster", "assay": "Insecticidal activity against wild type Drosophila melanogaster L. assessed as mortality compound topically applied dorsally to the thorax at 23 to 25 25 degC, 60 to 70%RH measured per adult after 3 hr", "format": "functional", "units": {"LD50": "µg"}, "values": [
      {"smiles": "C=C[C@]1(C)CC[C@@H](C(C)(C)O)C[C@H]1C(=C)C", "note": "[ALPHA-ELEMOL]", "LD50": 0.65},
      {"smiles": "C=C1CCC[C@]2(C)Cc3occ(C)c3C[C@@H]12", "note": "[ATRACTYLON]", "LD50": 1.43},
      {"smiles": "C=C1CCC[C@]2(C)CC[C@@H](C(C)(C)O)C[C@@H]12", "note": "[BETA-EUDESMOL]", "LD50": 2.63},
      {"smiles": "C=C(C)[C@@H]1CC[C@@]2(C)CCCC(=C)[C@@H]2C1", "note": "[BETA-SELINENE]", "LD50": 0.55},
      {"smiles": "CC1=CCC[C@H](C)[C@@]12CC[C@@H](C(C)(C)O)C2", "note": "[HINESOL]", "LD50": 0.71}
    ]}
  ]
}
